Reference: patent publication US20180263985A1, “MODULATORS OF TOLL-LIKE RECEPTORS FOR THE TREATMENT OF HIV” (Gilead Sciences, Inc., priority 2015, published 2018)
Values joined by “and” are separate entries in the source; they are usually repeats but may differ in a detail not shown here. Identical values can stand only once.

Key:
Type in all cases: cell-based, human
Monocytes = experiment: Immune cell activation in PBMC cultures, flow cytometry: monocytes
Procedure: (§1) TLR8 is expressed on multiple immune cell subsets. To determine how treatment with a TLR8 modulating compound affects activation of distinct cell populations, PBMCs were purified from HIV-1 infected subjects on cART, as described in Example 121 (anonymized participant IDs 184, 185, 188, 189, 190, and 191). […] After incubation, PBMCs were harvested and stained with antibodies conjugated to specific fluorophores (BD Biosciences) to delineate immune cell subsets: CD4 T cells (CD3+CD4+CD8−), CD8 T cells (CD3+CD8+CD4−), NK cells (CD3−CD56+CD16+), monocytes (CD3−CD14+), B cells (CD3−CD19+), and peripheral dendritic cells (DCs), defined as positive for HLA-DR and negative for a panel of markers: CD3, CD14, CD16, CD19, CD20, CD56 (Lin-1 lineage panel, BD Biosciences).
(§2) Additional markers of activation, maturation, and effector function were included for cell subsets, as follows: CD4 and CD8 T cells (CD25, CD38, CD69, IFN-γ, granzyme B, perforin, TNF-α), NK cells (CD25, CD69, IFN-γ), monocytes (CD11c, CD16, CD80, CD86, CD163, TNF-α), B cells (CD40, CD69, CD80, CD86), and DC (CD11c, CD69, CD80, CD86, CD123, and CD163). Cells were stained for surface markers (CD3, CD4, CD8, CD11c, CD14, CD16, CD25, CD69, CD80, CD86, CD163), washed, treated with fixation and permeabilization buffer (eBioscience), and stained for intracellular markers (IFN-γ, granzyme B, perforin, TNF-α). Cells were evaluated by flow cytometry on a LSR Fortessa (BD Biosciences), and data was analyzed with FlowJo software (TreeStar).
(§3) Data are expressed as geometric mean percentage (%) and as geometric mean fold-activation (Fold) for each marker and for each PBMC subset obtained from 4 or 6 subjects, as indicated. Fold activation is calculated as a ratio of the % positive for each marker for each PBMC subset at the indicated concentration of the compound of Example 15 relative to % positive for DMSO treated samples. Fold activations that are 1.5 are in bold.

CD8+ T Cells = experiment: Immune cell activation in PBMC cultures, flow cytometry: CD8+ T cells; conditions: 2 days; for CD8+ T Cells CD25 Fold / CD8+ T Cells CD28 Fold / CD8+ T Cells CD38 Fold / CD8+ T Cells CD69 Fold / CD8+ T Cells CD25 % / CD8+ T Cells CD28 % / CD8+ T Cells CD69 %: N = 6
Procedure: as §1, §2, §3

[1] = test system: PBMC cultures from HIV-1 infected subjects on cART; experiment: Induced HIV-1 expression in PBMC cultures, HIV-1 RNA in supernatant after 4 days (COBAS TaqMan HIV-1 Test); conditions: for Geometric Mean with ≥2-Fold-Activation / Range with ≥2-Fold-Activation: N = 12; for N with ≥2-Fold-Activation: subjects; for Fold HIV-1 Activation: vs DMSO
Procedure: In some experiments, IL-15, the TLR8 modulating compound of Example 15 or the combination of IL-15 and Example 15 were used at the indicated concentrations (Table 4). The cultures were maintained in the presence of antivirals (elvitegravir and efavirenz at 100 nM each) to prevent viral spread and amplification in order to measure the quantity of virus produced (latency reversal) by the TLR8 modulating compounds. At the end of the incubation period, cell-free culture supernatants were harvested and HIV-1 RNA levels were quantified by the COBAS® AmpliPrep/COBAS®TaqMan HIV-1 Test, v2.0 (Roche).
In each table, fold-activation is calculated as a ratio of HIV-1 RNA copies per ml of cell culture supernatants from TLR8 agonist treated samples and DMSO treated controls. Geometric mean fold-activation from three independent incubation samples for each condition of each subject's PBMCs. Values in bold indicate ≥2-fold HIV activation.
To assess if the latency reversal induced by TLR8 agonism could further potentiate latency reversal by a separate mechanisms, we treated cells as described above with IL-15, Example 15, or a combination of IL-15 and Example 15 (Table 4).

NK Cells = experiment: Immune cell activation in PBMC cultures, flow cytometry: NK cells; conditions: for NK Cells CD25 Fold / NK Cells CD69 Fold: 2 days, N = 6
Procedure: as §1, §2, §3

SMILES: CCCC[C@H](CO)Nc1nc(N)nc2cccnc12 [Example 15]
- Monocytes CD11c Fold (Monocytes; 10 nM vs DMSO, 2 days, N = 6): 0.6 fold
- Monocytes CD69 Fold (Monocytes; 10 nM vs DMSO, 2 days, N = 6): 0.3 fold
- Monocytes CD80 Fold (Monocytes; 10 nM vs DMSO, 2 days, N = 6): 1.1 fold
- Monocytes CD11c % (Monocytes; 10 nM, 2 days, N = 6): 0.4%
- Monocytes CD69 % (Monocytes; 10 nM, 2 days, N = 6): 0.8%
- Monocytes CD80 % (Monocytes; 10 nM, 2 days, N = 6): 33.0%
- Monocytes CD11c Fold (Monocytes; 100 nM vs DMSO, 2 days, N = 6): 5.2 fold
- Monocytes CD69 Fold (Monocytes; 100 nM vs DMSO, 2 days, N = 6): 0.6 fold
- Monocytes CD80 Fold (Monocytes; 100 nM vs DMSO, 2 days, N = 6): 1.6 fold
- Monocytes CD11c % (Monocytes; 100 nM, 2 days, N = 6): 3.6%
- Monocytes CD69 % (Monocytes; 100 nM, 2 days, N = 6): 1.8%
- Monocytes CD11c Fold (Monocytes; 1000 nM vs DMSO, 2 days, N = 6): 1.6 fold
- Monocytes CD69 Fold (Monocytes; 1000 nM vs DMSO, 2 days, N = 6): 2.0 fold
- Monocytes CD80 Fold (Monocytes; 1000 nM vs DMSO, 2 days, N = 6): 3.0 fold
- Monocytes CD11c % (Monocytes; 1000 nM, 2 days, N = 6): 1.2%
- Monocytes CD69 % (Monocytes; 1000 nM, 2 days, N = 6): 6.2%
- Monocytes CD11c Fold (Monocytes; 3000 nM vs DMSO, 2 days, N = 6): 2.1 fold
- Monocytes CD69 Fold (Monocytes; 3000 nM vs DMSO, 2 days, N = 6): 2.6 fold
- Monocytes CD80 Fold (Monocytes; 3000 nM vs DMSO, 2 days, N = 6): 2.7 fold
- Monocytes CD11c % (Monocytes; 3000 nM, 2 days, N = 6): 1.5%
- Monocytes CD69 % (Monocytes; 3000 nM, 2 days, N = 6): 7.9%
- Concentration of maximal activation of monocytes (Monocytes; increased expression of CD11c): 100 nM
- Concentration of maximal activation of monocytes (Monocytes; increased expression of CD69): 3000 nM
- Concentration of maximal activation of monocytes (Monocytes; increased expression of CD80): 1000 nM
- CD8+ T Cells CD25 Fold (CD8+ T Cells; 10 nM vs DMSO): 0.6 fold
- CD8+ T Cells CD28 Fold (CD8+ T Cells; 10 nM vs DMSO): 0.9 fold
- CD8+ T Cells CD38 Fold (CD8+ T Cells; 10 nM vs DMSO): 0.9 fold
- CD8+ T Cells CD69 Fold (CD8+ T Cells; 10 nM vs DMSO): 0.8 fold
- CD8+ T Cells CD25 % (CD8+ T Cells; 10 nM): 0.2%
- CD8+ T Cells CD28 % (CD8+ T Cells; 10 nM): 0.1%
- CD8+ T Cells CD69 % (CD8+ T Cells; 10 nM): 3.7%
- CD8+ T Cells CD25 Fold (CD8+ T Cells; 100 nM vs DMSO): 1.0 fold
- CD8+ T Cells CD28 Fold (CD8+ T Cells; 100 nM vs DMSO): 1.1 fold
- CD8+ T Cells CD38 Fold (CD8+ T Cells; 100 nM vs DMSO): 1.0 fold
- CD8+ T Cells CD69 Fold (CD8+ T Cells; 100 nM vs DMSO): 0.7 fold
- CD8+ T Cells CD25 % (CD8+ T Cells; 100 nM): 0.3%
- CD8+ T Cells CD28 % (CD8+ T Cells; 100 nM): 0.1%
- CD8+ T Cells CD69 % (CD8+ T Cells; 100 nM): 3.4%
- CD8+ T Cells CD25 Fold (CD8+ T Cells; 1000 nM vs DMSO): 2.2 fold
- CD8+ T Cells CD28 Fold (CD8+ T Cells; 1000 nM vs DMSO): 4.4 fold
- CD8+ T Cells CD38 Fold (CD8+ T Cells; 1000 nM vs DMSO): 2.0 fold
- CD8+ T Cells CD69 Fold (CD8+ T Cells; 1000 nM vs DMSO): 2.2 fold
- CD8+ T Cells CD25 % (CD8+ T Cells; 1000 nM): 0.7%
- CD8+ T Cells CD28 % (CD8+ T Cells; 1000 nM): 0.4%
- CD8+ T Cells CD25 Fold (CD8+ T Cells; 3000 nM vs DMSO): 3.0 fold
- CD8+ T Cells CD28 Fold (CD8+ T Cells; 3000 nM vs DMSO): 4.7 fold
- CD8+ T Cells CD38 Fold (CD8+ T Cells; 3000 nM vs DMSO): 2.0 fold
- CD8+ T Cells CD69 Fold (CD8+ T Cells; 3000 nM vs DMSO): 2.5 fold
- CD8+ T Cells CD25 % (CD8+ T Cells; 3000 nM): 0.9%
- CD8+ T Cells CD28 % (CD8+ T Cells; 3000 nM): 0.5%
- Perforin in CD8+ T cells (CD8+ T Cells; Example 15 treatment): did not increase
- Subjects with ≥2-Fold-Activation (%) ([1]; 10 nM): (42) %
- Geometric Mean with ≥2-Fold-Activation ([1]; 10 nM): 4.6 fold
- Range with ≥2-Fold-Activation ([1]; 10 nM): 2.2-20.1 fold
- N with ≥2-Fold-Activation ([1]; 10 nM): 5 of 12
- Fold HIV-1 Activation ([1]; 10 nM, one value per subject (IDs 172-183)): 2.6 fold and 2.2 fold and 4.7 fold and 1.2 fold and 1.9 fold and 1.3 fold and 0.3 fold and 0.5 fold and 1.0 fold and 4.1 fold and 0.8 fold
- Subjects with ≥2-Fold-Activation (%) ([1]; 100 nM): (33) %
- Geometric Mean with ≥2-Fold-Activation ([1]; 100 nM): 4.8 fold
- Range with ≥2-Fold-Activation ([1]; 100 nM): 2.2-10.1 fold
- N with ≥2-Fold-Activation ([1]; 100 nM): 4 of 12
- Fold HIV-1 Activation ([1]; 100 nM, one value per subject (IDs 172-183)): 3.8 fold and 6.6 fold and 2.2 fold and 1.5 fold and 1.0 fold and 0.5 fold and 0.2 fold and 0.1 fold and 0.7 fold and 1.8 fold and 1.3 fold
- Subjects with ≥2-Fold-Activation (%) ([1]; 1,000 nM): (58) %
- Geometric Mean with ≥2-Fold-Activation ([1]; 1,000 nM): 3.4 fold
- Range with ≥2-Fold-Activation ([1]; 1,000 nM): 2.4-5.7 fold
- N with ≥2-Fold-Activation ([1]; 1,000 nM): 7 of 12
- Fold HIV-1 Activation ([1]; 1,000 nM, one value per subject (IDs 172-183)): 2.7 fold and 2.4 fold and 3.3 fold and 1.2 fold and 4.7 fold and 0.3 fold (2×) and 3.4 fold and 3.0 fold and 1.3 fold and 1.6 fold and 5.7 fold
- Geometric Mean with ≥2-Fold-Activation ([1]; 10, 100, or 1000 nM): 4.4 fold
- Range with ≥2-Fold-Activation ([1]; 10, 100, or 1000 nM): 2.2-20.1 fold
- N with ≥2-Fold-Activation ([1]; 10, 100, or 1000 nM): 9 out of 12 and 9 of 12
- Subjects with ≥2-Fold-Activation (%) ([1]; Example 15 1000 nM): 50%
- Fold HIV-1 Activation, Geometric Mean ([1]; Example 15 1000 nM, N = 6): 2.1 fold
- N with ≥2-Fold-Activation ([1]; Example 15 1000 nM): 3 of 6
- Fold HIV-1 Activation ([1]; Example 15 1000 nM, one value per subject (IDs 205-210)): 0.6 fold and 4.7 fold and 0.8 fold and 9.7 fold and 2.0 fold and 1.9 fold
- NK Cells CD25 Fold (NK Cells; 10 nM vs DMSO): 0.4 fold
- NK Cells CD69 Fold (NK Cells; 10 nM vs DMSO): 0.4 fold
- NK Cells CD25 Fold (NK Cells; 100 nM vs DMSO): 1.6 fold
- NK Cells CD69 Fold (NK Cells; 100 nM vs DMSO): 0.6 fold
- NK Cells CD69 Fold (NK Cells; 1000 nM vs DMSO): 12.4 fold
- NK Cells CD25 Fold (NK Cells; 3000 nM vs DMSO): 9.6 fold
- NK Cells CD69 Fold (NK Cells; 3000 nM vs DMSO): 11.8 fold
- Concentration of maximal activation of NK cells (NK Cells; increased expression of CD25 and CD69): 1000 nM
